Our source for the T/C values is PubChem BioAssay AID228 (DTP/NCI, 2004).

Where “and” joins values, the source holds several entries; their conditions need not be identical. Identical values can stand only once. Inconclusive results are not listed.

The experiment relates to BDF1 mice, Friend leukemia sc, tumor weight T/C. Briefly: NCI In Vivo Anticancer Drug Screen. Data for tumor model Friend Virus Leukemia (Solid) (subcutaneous) in B6D2F1 (BDF1) mice. The note with it: endpoint: mean tumor weight, schedule: Q01DX011 (ip), higher = larger tumour. On the procedure:
The antitumor activity of compounds was measured in mice bearing transplantable tumors. Survival or tumor size were measured and the results are expressed as the measurement made in the treated group (T) divided by the measurement made in the vehicle treated control group (C). The tumor model used in this assay is Friend Virus Leukemia (Solid) (subcutaneous) in B6D2F1 (BDF1) mice

Setting [1] is: dose: 37.5 mg/kg/injection, vehicle: saline.
Setting [2] is: dose: 50.0 mg/kg/injection, vehicle: saline.
The mark [3] stands for this setting: dose: 60.0 mg/kg/injection, vehicle: carboxymethylcellulose (CMC).
Setting [4] is: dose: 2.0 mg/kg/injection, vehicle: carboxymethylcellulose (CMC).
Where [5] appears, read: dose: 4.0 mg/kg/injection, vehicle: carboxymethylcellulose (CMC).

For the compound `CC1(C)N=C(N)N=C(N)N1c1cccc(Cl)c1`, the T/C is 91 % of control (dose: 2.3 mg/kg/injection, vehicle: carboxymethylcellulose (CMC)); 104 % of control (dose: 4.6 mg/kg/injection, vehicle: carboxymethylcellulose (CMC)); 108 % of control (dose: 9.2 mg/kg/injection, vehicle: carboxymethylcellulose (CMC)).
Regarding `CCC[CH2][Sn]1([CH2]CCC)[O]C(=O)C[S]1`, the T/C (dose: 0.62 mg/kg/injection, vehicle: carboxymethylcellulose (CMC)) is 98 % of control and the T/C (dose: 1.25 mg/kg/injection, vehicle: carboxymethylcellulose (CMC)) was 68 % of control.
Consider `O=CN(O)CC(=O)O`, for which the T/C is 154 % of control (dose: 125.0 mg/kg/injection, vehicle: saline); 196 % of control (dose: 250.0 mg/kg/injection, vehicle: saline); 193 % of control (dose: 375.0 mg/kg/injection, vehicle: saline).
As to `CC(C)CCCCCCCCCCCCC(=O)NCC(=O)NC1C(O)C(O)C(Nc2ncnc3nc[nH]c23)OC1C(O)CO` (stereo not drawn), the T/C was 93 % of control (dose: 0.4 mg/kg/injection, vehicle: carboxymethylcellulose (CMC)); 83 % of control (dose: 0.6 mg/kg/injection, vehicle: carboxymethylcellulose (CMC)); 52 % of control (dose: 0.9 mg/kg/injection, vehicle: carboxymethylcellulose (CMC)); 50 % of control (dose: 1.35 mg/kg/injection, vehicle: carboxymethylcellulose (CMC)); 37 % of control (dose: 1.35 mg/kg/injection, vehicle: saline).
With `NCCCC(NC(=O)CCCCCCCCN=C(N)N)C(O)CCCCCCCCN=C(N)N` (stereo not drawn), the T/C (dose: 0.38 mg/kg/injection, vehicle: carboxymethylcellulose (CMC)) was 102 % of control; the T/C (dose: 0.75 mg/kg/injection, vehicle: carboxymethylcellulose (CMC)) is 82 % of control; the T/C (dose: 1.5 mg/kg/injection, vehicle: carboxymethylcellulose (CMC)) was 92 % of control; the T/C (dose: 3.0 mg/kg/injection, vehicle: carboxymethylcellulose (CMC)) is 96 % of control; the T/C (dose: 6.0 mg/kg/injection, vehicle: carboxymethylcellulose (CMC)) was 79 % of control.
On to `CN(C)c1ccc(/C=C/c2ccnc3ccccc23)cc1`, for which the T/C was 73 % of control under setting [1] and 51 % of control under setting [2].
As for `CS(=O)(=O)OCCCOS(C)(=O)=O`, the T/C (dose: 15.0 mg/kg/injection, vehicle: carboxymethylcellulose (CMC)) is 100 % of control; the T/C (dose: 30.0 mg/kg/injection, vehicle: carboxymethylcellulose (CMC)) is 98 % of control; the T/C under setting [3] was 31 % of control and 46 % of control; the T/C (dose: 120.0 mg/kg/injection, vehicle: carboxymethylcellulose (CMC)) is 22 % of control.
For `NC(=O)N(CCCl)N=O`, the T/C was 104 % of control (dose: 1.0 mg/kg/injection, vehicle: carboxymethylcellulose (CMC)); 101 % of control under setting [4]; 78 % of control under setting [5].
Consider `CCCSc1ncnc2nc[nH]c12`, for which the T/C is, setting by setting: (dose: 18.75 mg/kg/injection, vehicle: carboxymethylcellulose (CMC)) 64 % of control; (dose: 37.5 mg/kg/injection, vehicle: carboxymethylcellulose (CMC)) 64 % of control; (dose: 75.0 mg/kg/injection, vehicle: carboxymethylcellulose (CMC)) 45 % of control; (dose: 150.0 mg/kg/injection, vehicle: carboxymethylcellulose (CMC)) 8 % of control.
As for `CN(N=O)C(=O)Nc1c[nH]c(=O)[nH]c1=O`, the T/C is 108 % of control (dose: 5.0 mg/kg/injection, vehicle: carboxymethylcellulose (CMC)); 93 % of control (dose: 10.0 mg/kg/injection, vehicle: carboxymethylcellulose (CMC)); 91 % of control (dose: 20.0 mg/kg/injection, vehicle: carboxymethylcellulose (CMC)); 39 % of control (dose: 40.0 mg/kg/injection, vehicle: carboxymethylcellulose (CMC)); 45 % of control under setting [3]; 23 % of control (dose: 80.0 mg/kg/injection, vehicle: carboxymethylcellulose (CMC)).
Consider `COc1ccc2c3c1OC1C(O)C=CC4C(C2)N(C)CCC341` (stereo not drawn), for which the T/C runs as follows: under setting [1], 93 % of control; under setting [2], 119 % of control; (dose: 75.0 mg/kg/injection, vehicle: saline) 108 % of control.
`c1ccc(CSc2ncnc3nc[nH]c23)nc1`: the T/C is, setting by setting: under setting [4], 88 % of control; under setting [5], 46 % of control; (dose: 9.0 mg/kg/injection, vehicle: carboxymethylcellulose (CMC)) 33 % of control and 39 % of control; (dose: 18.0 mg/kg/injection, vehicle: carboxymethylcellulose (CMC)) 3 % of control and 7 % of control; (dose: 37.0 mg/kg/injection, vehicle: carboxymethylcellulose (CMC)) 6 % of control and 18 % of control.
With `O=C(COc1cc(Cl)c(Cl)cc1Cl)OCCOc1cc(Cl)c(Cl)cc1Cl`, the T/C by setting is: (dose: 11.25 mg/kg/injection, vehicle: carboxymethylcellulose (CMC)) 91 % of control; (dose: 22.5 mg/kg/injection, vehicle: carboxymethylcellulose (CMC)) 112 % of control; (dose: 45.0 mg/kg/injection, vehicle: carboxymethylcellulose (CMC)) 117 % of control; (dose: 90.0 mg/kg/injection, vehicle: carboxymethylcellulose (CMC)) 65 % of control.
In the case of `COc1cc(OC)c(OC)cc1/C=C\c1ccnc2ccccc12`, the T/C reads like this: (dose: 63.0 mg/kg/injection, vehicle: carboxymethylcellulose (CMC)) 78 % of control; (dose: 125.0 mg/kg/injection, vehicle: carboxymethylcellulose (CMC)) 60 % of control; (dose: 250.0 mg/kg/injection, vehicle: carboxymethylcellulose (CMC)) 64 % of control; (dose: 500.0 mg/kg/injection, vehicle: carboxymethylcellulose (CMC)) 52 % of control.
